# According to patent US20250041263A1, “USE OF CATECHIN FOR THE TREATMENT OF FGFR-RELATED BONE REPAIR AND BONE FORMATION IMPAIRMENT” (INSTITUT NATIONAL DE LA SANTÉ ET DE LA RECHERCHE MÉDICALE, priority 2021, published 2025):
# System: HCH mice (Fgfr3^N534K/+)
# Test: Non-stabilized mandibular fracture repair in HCH mouse model (microCT, repair grade)
# Format: in vivo
# Details: for BV/TV, treated vs untreated HCH mice: p<0.05
# Protocol: I-Study of mandibular bone repair in the mouse model of hypochondroplasia (Fgfr3^[…]/+) Mandibular bone repair was studied in the HCH mouse model (Fgfr3^[…]/+). The experiments were performed in adult animals at 6 weeks of age, and mice were euthanized at 4 key points: during bone repair (10, 14, 21 days post fracture), and at the end of the normal bone healing process i.e. at 28 days post fracture. Vertical mandibular fractures were performed in the ascending ramus region in Fgfr3^[…]/+ and Fgfr3^+/+ mice. This is a non-stabilized mandibular fracture protocol allowing to analyze the endochondral bone repair process. Four batches (n=100) of Fgfr3^[…]/+ and Fgfr3^+/+ mandible fractures corresponding to different key stages of repair were studied (day 10, day 14, day 21, day 28). Using collagen type II (proliferative cartilage), type X (hypertrophic cartilage) and type I (bone) immunolabelling, we observed that the endochondral process is disturbed, we noted a delayed cartilage resorption, a reduction in the size of hypertrophic chondrocytes area and a defect in bone formation within the repair callus in Fgfr3^[…]/+ compared to Fgfr3^+/+. […] We observed the presence of pseudarthrosis (fibrosis in the callus) in Fgfr3^[…]/+ mice whereas we observed 100% of bone in Fgfr3^+/+ callus. Considering the quality of the newly formed bone at day 28, we defined four grades of repair and classified the mice according to their repair grade (from 1 to 4). The defective repair is significant in Fgfr3^[…]/+ compared to Fgfr3^+/+ (Data not shown). HCH mice (Fgfr3^[…]/+) were treated with (-)-epicatechin (subcutaneous injection at 0.3 mg/kg, 3 times per week) from day 0 (facture of the mandible) to day 14 or day 28. The bone repair analyses were evaluated by microCT scans at day 14 (FIG. 1A) and day 28 (FIG. 1B) post fracture.
# [1] = day 28 grade repair, treated HCH mice
# [2] = microCT, day 14 post fracture, FIG. 1A
# [3] = microCT, day 28 post fracture, FIG. 1B
# [4] = summary statement, time not stated
Molecule,"Complete bone healing (grade 1), mice with grade / treated mice [1]","Restoration of bone continuity, but presence of mild bone defects (grade 2), mice with grade / treated mice [1]","presence of a bone callus, but with partial bone discontinuity (grade 3), mice with grade / treated mice [1]",pseudarthrosis in treated HCH mice (day 28 post fracture),BV/TV of treated Fgfr3^N534K/+ mandibles (in words) [2],"volume of the callus, treated vs untreated Fgfr3^N534K/+ (in words) [2]","BV/TV, treated vs untreated HCH mice (microCT, day 14 post fracture, subcutaneous 0.3 mg/kg, 3 times per week from day 0)",BV/TV of treated Fgfr3^N534K/+ mandibles (in words) [3],"volume of the callus, treated vs untreated Fgfr3^N534K/+ (in words) [3]","volume of the callus, treated vs untreated HCH mice (microCT, day 28 post fracture, subcutaneous 0.3 mg/kg, 3 times per week from day 0, p<0.01)","BV/TV, treated vs untreated HCH mice (microCT, day 28 post fracture, subcutaneous 0.3 mg/kg, 3 times per week from day 0)","mandible bone formation and repair / defective bone reparation of the callus (overall, in words) [4]","bone volume/total volume (overall, in words) [4]","pseudarthrosis (overall, in words) [4]"
"Oc1cc(O)c2c(c1)O[C@H](c1ccc(O)c(O)c1)[C@H](O)C2 [(−)-epicatechin, (2R,3R)-2-(3,4-dihydroxyphenyl)-3,4-dihydro-2H-chromene-3,5,7-triol]",1/9,6/9,2/9,did not observe pseudarthrosis,increased,unchanged,+19%,increased,decreased,−39.8%,+6.3%,improves,–,–
catechin,–,–,–,–,–,–,–,–,–,–,–,partially restores,increases,without pseudarthrosis
